Reference: PubChem BioAssay (NCI)
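96-well plates; 48 h exposure; 5 concentrations. Endpoints by linear interpolation between flanking doses. Not reached: highest tested concentration assigned. Here, GI50 denotes the concentration required for 50% inhibition of growth. TGI: total growth inhibition.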

Tests used:
Experiment in all cases: DTP human tumour cell line panel, 48 h
786-0 renal = system: 786-0 renal
A498 renal = system: A498 renal
A549 NSCLC = system: A549 NSCLC
ACHN renal = system: ACHN renal
BT-549 breast = system: BT-549 breast
CAKI-1 renal = system: CAKI-1 renal
CCRF-CEM leukemia = system: CCRF-CEM leukemia
COLO 205 colon = system: COLO 205 colon
DU-145 prostate = system: DU-145 prostate
EKVX NSCLC = system: EKVX NSCLC
HCC-2998 colon = system: HCC-2998 colon
HCT-116 colon = system: HCT-116 colon
HCT-15 colon = system: HCT-15 colon
HL-60(TB) leukemia = system: HL-60(TB) leukemia
HOP-62 NSCLC = system: HOP-62 NSCLC
HOP-92 NSCLC = system: HOP-92 NSCLC
HS 578T breast = system: HS 578T breast
HT29 colon = system: HT29 colon
IGROV1 ovarian = system: IGROV1 ovarian
K-562 leukemia = system: K-562 leukemia
KM12 colon = system: KM12 colon
LOX IMVI melanoma = system: LOX IMVI melanoma
M14 melanoma = system: M14 melanoma
MALME-3M melanoma = system: MALME-3M melanoma
MCF7 breast = system: MCF7 breast
MDA-MB-231 breast = system: MDA-MB-231 breast
MDA-MB-435 = system: MDA-MB-435
MOLT-4 leukemia = system: MOLT-4 leukemia
NCI-H226 lung = system: NCI-H226 lung
NCI-H23 lung = system: NCI-H23 lung
NCI-H460 lung = system: NCI-H460 lung
NCI-H522 lung = system: NCI-H522 lung
NCI/ADR-RES ovarian = system: NCI/ADR-RES ovarian
OVCAR-4 ovarian = system: OVCAR-4 ovarian
OVCAR-5 ovarian = system: OVCAR-5 ovarian
OVCAR-8 ovarian = system: OVCAR-8 ovarian
PC-3 prostate = system: PC-3 prostate
RPMI-8226 leukemia = system: RPMI-8226 leukemia
RXF 393 renal = system: RXF 393 renal
SF-268 CNS = system: SF-268 CNS
SF-295 CNS = system: SF-295 CNS
SF-539 CNS = system: SF-539 CNS
SK-MEL-2 melanoma = system: SK-MEL-2 melanoma
SK-MEL-28 melanoma = system: SK-MEL-28 melanoma
SK-MEL-5 melanoma = system: SK-MEL-5 melanoma
SK-OV-3 ovarian = system: SK-OV-3 ovarian
SN12C renal = system: SN12C renal
SNB-19 CNS = system: SNB-19 CNS
SNB-75 CNS = system: SNB-75 CNS
SR leukemia = system: SR leukemia
SW-620 colon = system: SW-620 colon
TK-10 renal = system: TK-10 renal
U251 CNS = system: U251 CNS
UACC-257 melanoma = system: UACC-257 melanoma
UACC-62 melanoma = system: UACC-62 melanoma
UO-31 renal = system: UO-31 renal

CCN1C(=O)N(CC)C2SC(N/N=C/C=C/c3ccccc3OC)=NC21 (stereo unspecified)
GI50 (786-0 renal): 758 nM | TGI (786-0 renal): 18900 nM | GI50 (A498 renal): 188 nM | TGI (A498 renal): 636 nM | GI50 (A549 NSCLC): 750 nM | TGI (A549 NSCLC): > 100000 nM | GI50 (ACHN renal): 744 nM | TGI (ACHN renal): > 100000 nM | GI50 (BT-549 breast): 353 nM | TGI (BT-549 breast): 1410 nM | GI50 (CAKI-1 renal): 567 nM | TGI (CAKI-1 renal): > 100000 nM | GI50 (CCRF-CEM leukemia): 386 nM | TGI (CCRF-CEM leukemia): > 100000 nM | GI50 (COLO 205 colon): 308 nM | TGI (COLO 205 colon): 951 nM | GI50 (DU-145 prostate): 704 nM | TGI (DU-145 prostate): > 100000 nM | GI50 (EKVX NSCLC): 1120 nM | TGI (EKVX NSCLC): > 100000 nM | GI50 (HCC-2998 colon): 853 nM | TGI (HCC-2998 colon): 13600 nM | GI50 (HCT-116 colon): 419 nM | TGI (HCT-116 colon): > 100000 nM | GI50 (HCT-15 colon): 428 nM | TGI (HCT-15 colon): > 100000 nM | GI50 (HL-60(TB) leukemia): 299 nM | GI50 (HOP-62 NSCLC): 535 nM | TGI (HOP-62 NSCLC): > 100000 nM | GI50 (HOP-92 NSCLC): 266 nM | TGI (HOP-92 NSCLC): 4300 nM | GI50 (HS 578T breast): 321 nM | TGI (HS 578T breast): > 100000 nM | GI50 (HT29 colon): 346 nM | TGI (HT29 colon): 3820 nM | GI50 (IGROV1 ovarian): 668 nM | TGI (IGROV1 ovarian): > 100000 nM | GI50 (K-562 leukemia): 400 nM | TGI (K-562 leukemia): > 100000 nM | GI50 (KM12 colon): 431 nM | TGI (KM12 colon): > 46300 nM | GI50 (LOX IMVI melanoma): 569 nM | TGI (LOX IMVI melanoma): 26900 nM | GI50 (M14 melanoma): 313 nM | TGI (M14 melanoma): 3230 nM | GI50 (MALME-3M melanoma): 504 nM | TGI (MALME-3M melanoma): > 100000 nM | GI50 (MCF7 breast): 427 nM | TGI (MCF7 breast): > 100000 nM | GI50 (MDA-MB-231 breast): 1500 nM | TGI (MDA-MB-231 breast): 38600 nM | GI50 (MDA-MB-435): 224 nM | TGI (MDA-MB-435): 560 nM | GI50 (MOLT-4 leukemia): 652 nM | TGI (MOLT-4 leukemia): > 100000 nM | GI50 (NCI-H226 lung): 562 nM | TGI (NCI-H226 lung): > 100000 nM | GI50 (NCI-H23 lung): 614 nM | TGI (NCI-H23 lung): > 100000 nM | GI50 (NCI-H460 lung): 379 nM | TGI (NCI-H460 lung): 13100 nM | GI50 (NCI-H522 lung): 236 nM | TGI (NCI-H522 lung): 703 nM | GI50 (NCI/ADR-RES ovarian): 495 nM | TGI (NCI/ADR-RES ovarian): > 100000 nM | GI50 (OVCAR-4 ovarian): 20300 nM | TGI (OVCAR-4 ovarian): > 100000 nM | GI50 (OVCAR-5 ovarian): 1300 nM | TGI (OVCAR-5 ovarian): > 100000 nM | GI50 (OVCAR-8 ovarian): 588 nM | TGI (OVCAR-8 ovarian): 7140 nM | GI50 (PC-3 prostate): 474 nM | TGI (PC-3 prostate): > 72500 nM | GI50 (RPMI-8226 leukemia): 398 nM | TGI (RPMI-8226 leukemia): 18200 nM | GI50 (RXF 393 renal): 350 nM | TGI (RXF 393 renal): 8900 nM | GI50 (SF-268 CNS): 2510 nM | TGI (SF-268 CNS): > 100000 nM | GI50 (SF-295 CNS): 371 nM | TGI (SF-295 CNS): > 55100 nM | GI50 (SF-539 CNS): 305 nM | TGI (SF-539 CNS): 2940 nM | GI50 (SK-MEL-2 melanoma): 672 nM | TGI (SK-MEL-2 melanoma): 18100 nM | GI50 (SK-MEL-28 melanoma): 1510 nM | TGI (SK-MEL-28 melanoma): > 100000 nM | GI50 (SK-MEL-5 melanoma): 525 nM | TGI (SK-MEL-5 melanoma): 9170 nM | GI50 (SK-OV-3 ovarian): 528 nM | TGI (SK-OV-3 ovarian): > 100000 nM | GI50 (SN12C renal): 991 nM | TGI (SN12C renal): > 76600 nM | GI50 (SNB-19 CNS): 538 nM | TGI (SNB-19 CNS): > 100000 nM | GI50 (SNB-75 CNS): 265 nM | TGI (SNB-75 CNS): > 100000 nM | GI50 (SR leukemia): 351 nM | TGI (SR leukemia): > 100000 nM | GI50 (SW-620 colon): 383 nM | TGI (SW-620 colon): > 100000 nM | GI50 (TK-10 renal): 19400 nM | TGI (TK-10 renal): > 96600 nM | GI50 (U251 CNS): 400 nM | TGI (U251 CNS): 16900 nM | GI50 (UACC-257 melanoma): 838 nM | TGI (UACC-257 melanoma): > 100000 nM | GI50 (UACC-62 melanoma): 405 nM | TGI (UACC-62 melanoma): > 100000 nM | GI50 (UO-31 renal): 730 nM | TGI (UO-31 renal): > 100000 nM
